How the values were obtained:
[1] = system: T1, ERK1/2 kinase; test: ERK1/2 kinase (Carna) inhibitory activity, Caliper mobility shift; assay type: biochemical
T1 construct: fused on or other part: Carna's ERK products carry a GST tag by vendor knowledge
How it was run: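 Compounds tested from 10 μM top concentration, 3-fold dilutions to 10 points, in duplicate, in 1× kinase buffer; Caliper mobility-shift readout.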

[2] = Liver microsomal metabolic stability, rat; assay type: in vitro ADME; conditions: liver microsomes, 0.5 mg/mL microsomes, 1 μM compound, NADPH, read-out: Liver microsomal stability T1/2
Experimental: (§1) The reaction was stopped with tinidazole-containing acetonitrile at 0 min, 5 min, 10 min and 30 min, respectively. After vortexing for 10 min and centrifuging at 15,000 rmp for 10 min, 50 μL of the supernatant was injected into a 96-well plate. The metabolic stability of the compound was calculated by determining the relative reduction of the drug, calculated as half-life T1/2.

[3] = Liver microsomal metabolic stability, mouse; assay type: in vitro ADME; conditions: liver microsomes, 0.5 mg/mL microsomes, 1 μM compound, NADPH, read-out: Liver microsomal stability T1/2
Experimental: as §1

[4] = biological target: T2, CYP1A2 (Homo sapiens, UniProt P05177); test: Direct inhibition test (DI test) in human liver microsomes, CYP1A2
T2 sequence (P05177 1-516): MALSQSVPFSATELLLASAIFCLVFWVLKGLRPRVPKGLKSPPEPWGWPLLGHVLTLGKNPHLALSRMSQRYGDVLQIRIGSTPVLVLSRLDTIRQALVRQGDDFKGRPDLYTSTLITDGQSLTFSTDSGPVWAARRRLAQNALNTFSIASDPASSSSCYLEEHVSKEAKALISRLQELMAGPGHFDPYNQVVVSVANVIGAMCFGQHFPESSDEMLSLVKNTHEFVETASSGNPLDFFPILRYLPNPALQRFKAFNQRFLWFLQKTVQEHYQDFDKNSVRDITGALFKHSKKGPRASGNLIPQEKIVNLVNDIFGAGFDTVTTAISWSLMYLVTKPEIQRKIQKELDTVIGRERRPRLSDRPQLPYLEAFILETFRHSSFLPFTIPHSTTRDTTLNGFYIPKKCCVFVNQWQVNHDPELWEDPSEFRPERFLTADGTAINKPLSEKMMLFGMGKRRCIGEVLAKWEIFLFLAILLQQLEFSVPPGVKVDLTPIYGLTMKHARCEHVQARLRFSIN
Experimental: (§2) (2) Direct inhibition test (DI test): A system containing 100 μL of human liver microsomes (final concentration of 0.2 mg/mL) was subjected to a direct inhibition incubation, and the system contained NADPH (final concentration of 1 mM), 10 μM compound, positive inhibitor cocktail (10 μM ketoconazole, 10 μM quinidine, 100 μM sulfaphenazole, 10 μM α-naphthoflavone, 1,000 μM tranylcypromine), negative control (BPS of 0.1% DMSO), and mixed probe substrates (10 μM midazolam, 100 μM testosterone, 10 μM dextromethorphan, […], 100 μM phenacetin, 100 μM mephenytoin). After 20 minutes of incubation, the reaction was stopped. The relative activity of the enzyme was calculated by measuring the relative production of metabolites.

[5] = biological target: CYP2C8 (Homo sapiens, UniProt P11712); test: Direct inhibition test (DI test) in human liver microsomes, CYP2C8; assay type: in vitro ADME
[6] = biological target: T3, CYP2C19 (Homo sapiens, UniProt P33261); test: Direct inhibition test (DI test) in human liver microsomes, CYP2C19; assay type: in vitro ADME
T3 construct: A system containing 100 μL of human liver microsomes; from tissue; host or cells: human liver microsomes
Experimental: as §2

[7] = biological target: T4, CYP3A4 (Homo sapiens, UniProt P08684); test: Direct inhibition test (DI test) in human liver microsomes, CYP3A4; assay type: in vitro ADME
T4 construct: A system containing 100 μL of human liver microsomes; from tissue; host or cells: human liver microsomes
Experimental: as §2

[8] = biological target: T5, CYP2D6 (Homo sapiens, UniProt P10635); test: Direct inhibition test (DI test) in human liver microsomes, CYP2D6; assay type: in vitro ADME
T5 construct: A system containing 100 μL of human liver microsomes; from tissue; host or cells: human liver microsomes
Experimental: as §2

[9] = In-vivo pharmacokinetic parameters in mice; parameters: species or system Balb-c mice
How it was run: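 Male SD rats or Balb-c mice were dosed intravenously at 1 mg/kg or orally at 5 mg/kg. Jugular-vein plasma was sampled up to 24 h and analysed by LC-MS/MS. Non-compartmental analysis gave AUC, MRT, Cmax, Tmax, T1/2, Vd and oral bioavailability (F).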

[10] = In-vivo pharmacokinetic parameters in SD rats
Experimental: Six male SPF grade SD rats or Balb-c mice (Shanghai Sipple-Bikai Laboratory Animal) were divided into two groups, and the tested compounds were prepared into appropriate solutions or suspensions; one group was administered intravenously (with a dose of 1 mg/kg), and the other group was administered orally (with a dose of 5 mg/kg). Blood samples were collected by jugular vein puncture, and each sample was collected with a volume of about 0.2 mL/time point, and heparin sodium was used for anticoagulation. The time points of blood collection were listed below: 5, 15 and 30 min […], 1, 2, 4, 6, 8 and 24 h after administration; the collected blood samples were placed on ice and centrifuged to separate plasma (centrifugation conditions: 8,000 rpm, 6 min, 2 to 8° C.), and the collected plasma was stored at −80° C. before analysis. Plasma samples were analyzed by LC-MS/MS.
The pharmacokinetic parameters such as AUC0-t, AUC0-∞, MRT0-∞, Cmax, Tmax, T1/2 and Vd of the tested compounds and their mean values and standard deviations were calculated by the pharmacokinetic calculation software WinNonlin5.2 non-compartmental model according to the plasma concentration data. In addition, the bioavailability (F) was calculated by the following formula.
For samples with concentrations below the lower limit of quantitation, while pharmacokinetic parameter calculations were performed, samples sampled before Cmax was reached should be calculated as a zero value and samples sampled after Cmax was reached should be calculated as below limit of quantitation (BLQ).

[11] = male, Balb-c, mouse, plasma, IV, 1 mg/kg
[12] = male, Balb-c, mouse, plasma, PO, 5 mg/kg
[13] = male, rat, plasma, 1 mg/kg, IV, 1 mpk
[14] = male, rat, plasma, 5 mg/kg, PO, 5 mpk

T4 sequence (P08684 whole entry): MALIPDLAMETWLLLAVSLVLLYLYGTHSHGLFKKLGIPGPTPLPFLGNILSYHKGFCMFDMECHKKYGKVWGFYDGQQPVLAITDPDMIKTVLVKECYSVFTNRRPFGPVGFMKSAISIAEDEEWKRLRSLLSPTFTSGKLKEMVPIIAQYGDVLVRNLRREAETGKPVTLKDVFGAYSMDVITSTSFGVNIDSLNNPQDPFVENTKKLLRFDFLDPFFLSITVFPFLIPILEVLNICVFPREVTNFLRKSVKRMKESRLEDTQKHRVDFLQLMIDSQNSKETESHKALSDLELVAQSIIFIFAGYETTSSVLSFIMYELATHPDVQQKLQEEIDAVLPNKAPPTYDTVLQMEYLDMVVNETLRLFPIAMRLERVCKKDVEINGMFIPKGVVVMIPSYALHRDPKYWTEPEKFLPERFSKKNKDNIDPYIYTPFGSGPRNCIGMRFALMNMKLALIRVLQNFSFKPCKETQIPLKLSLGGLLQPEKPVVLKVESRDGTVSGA
T5 sequence (P10635 whole entry): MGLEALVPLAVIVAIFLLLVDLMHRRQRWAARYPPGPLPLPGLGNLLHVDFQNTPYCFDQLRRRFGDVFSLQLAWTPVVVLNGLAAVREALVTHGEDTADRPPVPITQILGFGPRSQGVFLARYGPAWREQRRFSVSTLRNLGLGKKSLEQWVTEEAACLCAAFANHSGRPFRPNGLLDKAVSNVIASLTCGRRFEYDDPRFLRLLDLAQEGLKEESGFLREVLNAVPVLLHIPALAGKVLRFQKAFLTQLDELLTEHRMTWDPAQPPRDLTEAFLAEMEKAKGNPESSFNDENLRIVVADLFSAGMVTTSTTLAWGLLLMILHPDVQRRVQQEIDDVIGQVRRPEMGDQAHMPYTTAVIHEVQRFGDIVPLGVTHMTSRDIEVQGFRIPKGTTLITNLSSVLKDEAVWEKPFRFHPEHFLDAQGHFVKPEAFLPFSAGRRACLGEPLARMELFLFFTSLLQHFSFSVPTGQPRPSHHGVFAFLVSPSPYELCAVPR
T3 sequence (P33261 whole entry): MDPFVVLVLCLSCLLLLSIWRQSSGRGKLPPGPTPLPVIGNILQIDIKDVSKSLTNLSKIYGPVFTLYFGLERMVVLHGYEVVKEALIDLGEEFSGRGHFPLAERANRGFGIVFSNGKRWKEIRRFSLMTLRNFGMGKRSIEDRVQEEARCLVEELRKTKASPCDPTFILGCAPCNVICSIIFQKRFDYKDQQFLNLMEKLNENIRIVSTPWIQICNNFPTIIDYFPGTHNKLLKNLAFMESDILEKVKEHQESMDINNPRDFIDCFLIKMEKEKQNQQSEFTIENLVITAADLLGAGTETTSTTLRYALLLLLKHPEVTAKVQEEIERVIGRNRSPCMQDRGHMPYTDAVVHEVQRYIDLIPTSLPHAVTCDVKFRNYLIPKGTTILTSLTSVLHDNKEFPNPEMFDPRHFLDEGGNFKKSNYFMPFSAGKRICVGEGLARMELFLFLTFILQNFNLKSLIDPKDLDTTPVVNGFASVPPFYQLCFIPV
CYP2C8, sequence (P11712 whole entry): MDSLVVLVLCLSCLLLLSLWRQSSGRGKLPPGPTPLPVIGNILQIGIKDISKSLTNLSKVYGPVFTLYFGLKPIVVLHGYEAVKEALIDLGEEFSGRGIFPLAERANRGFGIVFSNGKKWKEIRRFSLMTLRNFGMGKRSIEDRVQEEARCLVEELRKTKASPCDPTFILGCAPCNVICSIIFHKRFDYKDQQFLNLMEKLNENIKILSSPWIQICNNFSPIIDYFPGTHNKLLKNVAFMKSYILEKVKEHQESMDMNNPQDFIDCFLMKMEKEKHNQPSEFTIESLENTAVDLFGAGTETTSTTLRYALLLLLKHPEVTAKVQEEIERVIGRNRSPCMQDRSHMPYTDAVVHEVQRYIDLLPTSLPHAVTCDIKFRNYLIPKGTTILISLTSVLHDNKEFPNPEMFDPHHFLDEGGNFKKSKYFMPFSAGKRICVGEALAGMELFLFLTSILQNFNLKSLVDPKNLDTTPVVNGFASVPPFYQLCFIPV

IC50 ([1]; numeric values, read-out: ERK½ IC50): < 0.001 µM | half-life at 1 μM [2]: 14 min | half-life at 1 μM [3]: 13 min | IC50 [4]: > 10 µM | IC50 at 20 min [5]: > 10 µM | IC50 [6]: > 10 µM | IC50 [7]: > 10 µM | IC50 [8]: > 10 µM | F ([9]; PO 5 mg/kg vs IV 1 mg/kg): 59% | AUC(0-inf) [9, 11]: 0.368 µM·h | AUC(0-t) [9, 11]: 0.365 µM·h | MRT inf [9, 11]: 12 min | clearance [9, 11]: 78 mL/min/kg | half-life [9, 11]: 36 min | Vd ([9]; male, Balb-c, mouse, plasma, IV, 1 mg/kg, read-out: Vss): 1 L/kg | AUC(0-inf) [9, 12]: 1.09 µM·h | AUC(0-t) [9, 12]: 1.08 µM·h | Cmax [9, 12]: 1200 nM | Tmax [9, 12]: 18 min | half-life [9, 12]: 66 min | F ([10]; PO 5 mpk vs IV 1 mpk): 29% | AUC(0-inf) [10, 13]: 0.304 µM·h | AUC(0-t) [10, 13]: 0.303 µM·h | MRT inf [10, 13]: 12 min | clearance [10, 13]: 94 mL/min/kg | half-life [10, 13]: 18 min | Vd ([10]; male, rat, plasma, 1 mg/kg, IV, 1 mpk, read-out: Vss): 0.9 L/kg | AUC(0-inf) [10, 14]: 0.436 µM·h | AUC(0-t) [10, 14]: 0.432 µM·h | Cmax [10, 14]: 476 nM | Tmax [10, 14]: 18 min | half-life [10, 14]: 66 min
Compound: COc1cc(F)cc([C@@H](CO)NC(=O)[C@@H](C)N2Cc3ccc(-c4nc(NC5CCOCC5)ncc4F)c(F)c3C2=O)c1 [Embodiment 40]
enzyme inhibitory activity (in words) [1]: extremely strong enzyme inhibitory activity

Reference: patent US20230312564A1, “AROMATIC RING-LACTAM COMPOUND, PREPARATION METHOD THEREFOR AND USE THEREOF” (SHANGHAI RINGENE BIOPHARMA CO., LTD., priority 2020, published 2023)
